The values below come from patent publication US9988627B2, “Formats for organic compounds for use in RNA interference” (NOVARTIS AG, priority 2013, dated 2018).

Data set [1] concerns human APOC3. Briefly: 18-mer with internal spacer RNAi agents, residual mRNA in Huh7 at 15 nM. The format is cell-based. The text has this:
In the various RNAi agents described in this example, a nucleotide at any of positions 1 to 18 was individually replaced by a spacer subunit, and RNA interference activity was retained. The 3′ end of each strand terminates in a phosphate or modified internucleoside linker and further comprises, in 5′ to 3′ order, a second spacer, a second phosphate or modified internucleotide linker, and a 3′ end cap.
Similarly, U027, A027, G027 indicate that the nucleotides U, A or G, respectively, are absent and have been replaced by a spacer, which is ribitol. The target used in human APOC3. The numbers in columns 2 represent residual mRNA levels; thus, 5.8 in column 2, row 2, indicates residual mRNA level of 5.8% or 94.2% gene knockdown. SD, standard deviation.

In data set [2] the test system is Hepcidin (HAMP) mRNA. Briefly: Hepcidin mRNA down regulation in HuH-7 cells by 18-mer HAMP siRNA-PAZ ligand conjugates. The format is cell-based, Homo sapiens. The note with it: format S402+ribitol+MOE clamp. From the text: Potency of 18-mer HAMP (Hepcidin) siRNA-PAZ Ligand Conjugates is studied.
A variety of constructs were made using the same two sequences. […] A variety of 3′ end caps is also used.
Hepcidin mRNA down regulation in HuH-7 cells is studied at 3 doses.
Two test sequences used are hs_HAMP_400 and 402. “hs” indicates “Homo sapiens”. 400 is a sequence beginning at position 400 and 402 is an overlapping sequence […]
Various other hs_HAMP 400 and 402 are depicted in FIG. 5A (Guide or antisense strand) and 5B (corresponding Sense strand).
This Table indicates the Nickname (“Oligo Identifier”) for the 3′ end cap, and the DMT, Succinate and Carboxylate variants thereof; the Carboxylate Kd; the KD (knockdown) mediated by a Hepcidin RNAi agent comprising the 3′ end cap (format: S402+ribitol+MOE clamp) at 5 nM in vitro; and the approximate (approx.) IC50

The test system of data set [3] is hepcidin (Hamp1) mRNA in liver. Briefly: In vivo hepcidin knockdown in mouse liver (mRNA-qPCR), LNP569 Hamp254 18-mers. The note with it: 1×3 mg/kg i.v., 48 h (day 2). The procedure:
PBS: phosphate-buffered saline (negative control). This experiment was performed in vivo in the mouse. These were single 3 mg/kg dose i.v., and Hepcidin mRNA knockdown in liver was measured after 2 and 7 days.
LNP569 is a lipid nanoparticle preparation of the RNAi agent.
Two timepoints—48 and 168 hrs post-injection (both 3 mg/kg).
Assess hepcidin knockdown in liver (mRNA-qPCR)
(Real-time PCR tracks product formation cycle by cycle.)

For data set [4], the system named is FVII (Factor VII). Briefly: RNA interference of 3′-capped mF7-III siRNAs against FVII (FIG. 2). It counts as cell-based, mouse. The note with it: 19-mer blunt-ended mF7-III siRNA, A12S17.

Entries after “also recorded” stand apart in the source; their conditions may differ.

With “6 (sense GACAGUAUUCUCAGUGCU; antisense AGCACUGAGAAUCUGUC; chemical modifications, end caps, chemistry not fully specified) [compound 6]”, the “% Res mRNA_Huh7_15 nM” value in data set [1] is 33.1%.
For `OCCCCCCO` [C6, 1,6-hexane-diol], the “Hepcidin KD at 5 nM in vitro (%)” value in data set [2] was determined as 66%. In addition, the “Hepcidin knockdown in vivo at 48 hours post-dose” value in data set [3] is “more efficacious than the 21-mer format; also recorded: able to mediate Hepcidin knockdown”. In addition, the “ability to mediate RNA interference” value in data set [4] was “allow the RNAi agent to perform RNA interference”.
Consider “18 (sense GACAGUAUUCUCAGUGCU; antisense GCACUGAGAAUACUGUC; chemical modifications, end caps, chemistry not fully specified) [compound 18]”, for which, in data set [1], the “% Res mRNA_Huh7_15 nM” value is 7.6%.
The same measure, in the same setting: as for “12 (sense GACAGUAUUCUCAGUGCU; antisense AGCACUAGAAUACUGUC; siRNA; modified with OMe, F, MOE, ribitol spacers, code 006 undefined, further chemistry not given here) [compound 12]”, the figure is 10.5%; as for “8 (sense GACAGUAUUCUCAGUGCU; antisense AGCACUGAGAUACUGUC; chemical modifications, end caps, chemistry not fully specified) [compound 8]”, 23.8%.
For “3 (sense GACAGUAUUCUCAGUGCU; antisense AGCACUGAGAAUACUUC; chemical modifications, end caps, chemistry not fully specified) [compound 3]”, the “% Res mRNA_Huh7_15 nM” value in data set [1] worked out at 11.3%.
In the case of “14 (sense GACAGUAUUCUCAGUGCU; antisense AGCAUGAGAAUACUGUC; siRNA; modified with OMe, F, MOE, ribitol spacers, code 006 undefined, further chemistry not given here) [compound 14]”, the “% Res mRNA_Huh7_15 nM” value in data set [1] was determined as 3.2%.
In the case of “21 (sense GpGpApC004pApGpU004pApU004pU004pC004pU004pC004pApGpU004pGpC004pU004pU002pU002; antisense ApGpCpApCpU004pGpApGpApApU004pApCpU004pGpU004pCpCpU002pU002; chemical modifications, as printed in the source, key not given here) [compound 21]”, the “% Res mRNA_Huh7_15 nM” value in data set [1] was 6.5%.
`OCCOCCOCCO` [Triethylene glycol, triethylene glycol]: the “ability to mediate RNA interference” value in data set [4] is reported as “allow the RNAi agent to perform RNA interference”.
With “20 (sense GACAGUAUUCUCAGUGCU; antisense AGCACUGAGAAUACUGUC; siRNA; chemical modifications, end caps, further chemistry not given here) [compound 20]”, the “% Res mRNA_Huh7_15 nM” value in data set [1] turned out to be 9.7%.
The same measure, in the same setting: as for “9 (sense GACAGUAUUCUCAGUGCU; antisense AGCACUGAGAUACUGUC; siRNA; 2'-modified nucleotides, phosphates, 3' end caps, further chemistry not given here) [compound 9]”, the figure is 56.7%; as for “1 (sense GACAGUAUUCUCAGUGCU; antisense AGCACUGAGAAUACUGU; chemical modifications, end caps, chemistry not fully specified) [compound 1]”, 5.8%.
Still for that read-out and setting: the result for `COc1ccc(C(OCc2cc(Br)cc(CO)c2)(c2ccccc2)c2ccc(OC)cc2)cc1` [compound 2, (3-((bis(4-methoxyphenyl)(phenyl)methoxy)methyl)-5-bromophenyl)methanol] reads 3.4%; that for “5 (sense GACAGUAUUCUCAGUGCU; antisense AGCACUGAGAAUAUGUC; chemical modifications, end caps, chemistry not fully specified) [compound 5]”, 25.6%; that for “7 (sense GACAGUAUUCUCAGUGCU; antisense AGCACUGAGAAACUGUC; chemical modifications, end caps, chemistry not fully specified) [compound 7]”, 22%.
For the compound “16 (sense GACAGUAUUCUCAGUGCU; antisense AGACUGAGAAUACUGUC; siRNA; modified with OMe, F, MOE, ribitol spacers, code 006 undefined, further chemistry not given here) [compound 16]”, in data set [1], the “% Res mRNA_Huh7_15 nM” value worked out at 6.8%.
Regarding “19 (sense GACAGUAUUCUCAGUGCU; antisense AGCACUGAGAAUACUGUC; chemical modifications, end caps, chemistry not fully specified) [compound 19]”, the “% Res mRNA_Huh7_15 nM” value in data set [1] was found to be 6.3%.
Turning to “4 (sense GACAGUAUUCUCAGUGCU; antisense AGCACUGAGAAUACGUC; chemical modifications, end caps, chemistry not fully specified) [compound 4]”, the “% Res mRNA_Huh7_15 nM” value in data set [1] is given as 9.5%.
On to “17 (sense GACAGUAUUCUCAGUGCU; antisense ACACUGAGAAUACUGUC; chemical modifications, end caps, chemistry not fully specified) [compound 17]”, for which the “% Res mRNA_Huh7_15 nM” value in data set [1] was found to be 57.4%.
In the case of “11 (sense GACAGUAUUCUCAGUGCU; antisense AGCACUGGAAUACUGUC; siRNA; modified with OMe, F, MOE, ribitol spacers, code 006 undefined, further chemistry not given here) [compound 11]”, the “% Res mRNA_Huh7_15 nM” value in data set [1] amounted to 22.3%.
Take “10 (sense GACAGUAUUCUCAGUGCU; antisense AGCACUGAAAUACUGUC; siRNA; modified with OMe, F, MOE, ribitol spacers, code 006 undefined, further chemistry not given here) [compound 10]”: the “% Res mRNA_Huh7_15 nM” value in data set [1] came out at 55%.
Regarding “15 (sense GACAGUAUUCUCAGUGCU; antisense AGCCUGAGAAUACUGUC; siRNA; modified with OMe, F, MOE, ribitol spacers, code 006 undefined, further chemistry not given here) [compound 15]”, the “% Res mRNA_Huh7_15 nM” value in data set [1] turned out to be 18.3%.
Turning to `C1C2CC3CC1CC(C2)C3` [Adamantane, adamantane], the “ability to mediate RNA interference” value in data set [4] is given as “allow the RNAi agent to perform RNA interference”.
For “13 (sense GACAGUAUUCUCAGUGCU; antisense AGCACGAGAAUACUGUC; siRNA; modified with OMe, F, MOE, DNA, ribitol spacers, code 006 undefined, further chemistry not given here) [compound 13]”, the “% Res mRNA_Huh7_15 nM” value in data set [1] turned out to be 4.4%.
